Assay results taken from US11866695B2, “Methods and systems and related compositions for mixtures separation with a solid matrix” (CALIFORNIA INSTITUTE OF TECHNOLOGY, priority 2019, dated 2024).

Test system: λ phage DNA
Experiment: Zymo Quick-Viral DNA/RNA kit extraction with additional TPW, qPCR with 2.2× diluted eluent
Assay type: biochemical
Protocol: qPCR reactions contained 1× Bio-Rad SsoFast Supermix (1725201, Bio-Rad), PCR primers (IDT) at […] each, and were supplemented with nuclease-free water up to 10 μL. Each 96-well plate (thin-wall clear well, HSP9641, Bio-Rad) was sealed (Microseal B, MSB1001, Bio-Rad) and briefly spun in a Mini Plate Spinner Centrifuge (14-100-141, Fisher Scientific). Heating and real-time imaging were performed on the Bio-Rad CFX-96 Touch Real-Time PCR Detection System by heating to 95° C. for 5 min, cycling 40 times between 95° C. for 15 s, 60° C. for 15 s, and 72° C. for 20 s, and taking a melt-curve analysis. For the E. coli DNA dilution experiment, qPCR was run for 60 cycles. Fluorescence readings were taken at the end of each extension step. Quantification cycle (Cq) was determined when the software's automated baseline corrected fluorescence reached 200 RFU.
Three different silica-column kits were tested, including: Zymo ZR Viral DNA/RNA Kit (outdated protocol, D7021), Zymo Quick-DNA/RNA Kit (updated protocol, D7021), and the QIAquick PCR Purification Kit (28104, Qiagen). For all silica-column kits, fresh collection tubes were used after each spin and centrifugation speeds were set to 16,000×g. Centrifugation was performed on either an Eppendorf 5415D centrifuge (Eppendorf, Hauppauge, N.Y., USA) or a Thermo Fisher Scientific AccuSpin Micro 17R centrifuge (13-100-676). It was noted that the QIAquick protocol calls for 17,900×g, but instead was run at 16,000×g which was the max speed for the Eppendorf 5415D. For both Zymo kits, 750 μL lysed sample was prepared by mixing 125 μL sample with 125 μL Zymo 2×DNA/RNA Shield and 500 μL Viral DNA/RNA Buffer. For the Zymo ZR Viral DNA/RNA kit, 750 μL lysed sample was centrifuge for 1 min, 500 μL Zymo Viral Wash Buffer was centrifuged for 2 min, and 50 μL nuclease-free water was centrifuged for 30 s into a clean 1.5 mL tube. Optionally, either a dry spin or 300 μL TPW was centrifuged for 2 min in between the Viral Wash Buffer and elution steps. […] For the QIAquick PCR Purification Kit, 125 μL sample was mixed with 625 μL Buffer PB without indicator. 750 μL lysed sample was centrifuged for 30 s, followed by 750 μL Buffer PE for 30 s, a dry spin for 1 min, and 50 μL nuclease-free water for 1 min. Optionally, the dry spin was skipped or the dry spin was replaced with a 300 μL TPW and centrifuged for 1 min.
Of our TPW candidates, 1-undecanol was selected for further evaluation because (i) it was non-inhibitory for qPCR and LAMP reactions and (ii) as an alcohol, 1-undecanol may function similarly to ethanol- or isopropanol-based washes. In these experiments (testing criteria 1b and 2), a commercially purified λ phage DNA sample was first diluted to 2.5×10^6 copies and ran an NA extraction using the Zymo Quick-DNA/RNA Viral Kit. The experimental procedure either followed the manufacturer protocol or added an additional 300 μL 1-undecanol wash in between the Viral Wash Buffer and elution step. Using the manufacturer's protocol, the resulting eluent is approximately 49 μL, but with the added TPW the resulting eluent is approximately 48 μL aqueous phase and ˜1-2 μL 1-undecanol phase. To emphasize any potential inhibitory effects, a low dilution of eluent was used. For qPCR, a 2.2×dilution was achieved by adding 4.5 μL of eluent, 0.5 μL primers, and 5 μL qPCR reaction mix. For LAMP, a 2×dilution was achieved by adding 5 μL eluent, 0.5 μL primers, and 4.5 μL reaction mix. […] The ˜1-2 μL TPW separates from the aqueous phase and adheres to the walls of the tube, making it is easy to use a pipette to capture just the eluent.

CCCCCCCCCCCO [1-undecanol]
Cq (2.2× eluent dilution, 3 columns, 9 samples): 18.46±0.22 cycles | qPCR reactions amplified (2.2× eluent dilution, amplified/total): all reactions amplified | average Cq (27 reactions (9 columns)): 19.7±2.5 cycles | wells with Cq between 18-22 cycles (27 reactions (9 columns)): 25/27 | wells with a delayed Cq (27 reactions (9 columns)): 2/27
